Measurements as given in the Kinase Knowledgebase extract (Sharma et al. 2016).

Molecular target: CDK2 (UniProt P24941)
Assay: Enzyme Assay

IC50, < 50 µM:
O=C(Nc1csc(-c2ccncc2)n1)Nc1nc(-c2cccnc2)cs1
O=C(Nc1ccc(C(F)(F)F)cn1)Nc1csc(-c2ccncc2)n1
O=C(Nc1csc(-c2cccnc2)n1)Nc1csc(-c2cccnc2)n1
CN(C)CCNc1cccc(NC(=O)Nc2csc(-c3ccncc3)n2)n1
Cc1cccc(NC(=O)Nc2csc(-c3cccnc3)n2)n1
CCCc1cccc(NC(=O)Nc2csc(-c3ccnc(CC)c3)n2)n1
O=C(Nc1cccc(N2CCOCC2)n1)Nc1csc(-c2ccncc2)n1
CCN(CC)c1cccc(NC(=O)Nc2csc(-c3ccncc3)n2)n1
O=C(Nc1csc(-c2ccncc2)n1)Nc1csc(-c2ccncc2)n1
O=C(Nc1cccc(NCCCN2CCOCC2)n1)Nc1csc(-c2ccncc2)n1
O=C(Nc1csc(-c2ccncc2)n1)Nc1ccc2ccccc2n1
CCN(CC)Cc1cccc(NC(=O)Nc2csc(-c3ccncc3)n2)n1
Cc1cccnc1NC(=O)Nc1csc(-c2ccncc2)n1
O=C(Nc1ccccn1)Nc1csc(-c2ccncc2)n1
Cc1ccc(NC(=O)Nc2csc(-c3ccncc3)n2)nc1
O=C(Nc1cccc(N2CCCCC2)n1)Nc1csc(-c2ccncc2)n1
CCc1ccnc(NC(=O)Nc2csc(-c3ccncc3)n2)c1
NC(=O)c1ccc(NC(=O)Nc2csc(-c3ccncc3)n2)nc1
O=C(Nc1csc(-c2ccncc2)n1)Nc1cc2ccccc2c(Br)n1
O=C(Nc1csc(-c2ccncc2)n1)Nc1cccc2[nH]cnc12
O=C(Nc1ccccn1)Nc1csc(-c2cccnc2)n1
CCCc1cccc(NC(=O)Nc2csc(-c3ccncc3)n2)n1
O=C(Nc1csc(-c2ccncc2)n1)Nc1nccs1
CCCc1cccc(NC(=O)Nc2cccc(-c3cccnc3)c2)n1
CN(C(=O)Nc1csc(-c2ccncc2)n1)c1ccccn1
CCc1cccc(NC(=O)Nc2csc(-c3ccncc3)n2)n1
O=C(Nc1csc(-c2cccnc2)n1)Nc1nccs1
Cc1cccc(NC(=O)Nc2csc(-c3ccncc3)n2)n1
CN1CCN(c2cccc(NC(=O)Nc3csc(-c4ccncc4)n3)n2)CC1
O=C(Nc1csc(-c2cccnc2)n1)Nc1nc(-c2cccnc2)cs1
O=C(Nc1ccccn1)Nc1csc(-c2ccccn2)n1
O=C(Nc1csc(-c2cccnc2)n1)Nc1nc(-c2ccccc2)cs1
